Key:
[1] = Adsorption isotherms of herbicide on montmorillonite pre-adsorbed by organic cations; assay type: physicochemical; conditions: for adsorption on montmorillonite pre adsorbed by organic cations: FIGS. 1A and 1B
Description: A suitable concentrated solution of the organic cation is added dropwise to a 0.5 or 1% W/W of clay suspension (e.g. Montmorillonite; Sepiolite; Palygorskite; Pillared clays). After separation of the supernatant, the organoclay complex is dried and ground to less than 50 μm. The herbicide is dissolved in a suitable volatile organic solvent e.g. hexane, dichloro methane, acetone, and mixed with the solid organoclay in weight relations of 5-20 g of herbicide to 95-80 g organoclay. The organic solvent is evaporated under gentle reduced pressure and continuous mixing and the resulting herbicide-organoclay complex is ground to less than 50 μm. The pesticide formulation can be further improved by adding water or another solvent to the dried material; removing the loosely bound pesticide, and drying again.
BTMS 0.8 mole/kg, BTEA 0.8 mole/kg, BTEA 0.5 mole/kg or HDTMA 0.5 mole/kg clay. Bars indicate standard errors.

green foxtail = assay: Laboratory soil column leaching bioassay (growth inhibition of sensitive test plants at soil depths); assay type: in vivo, green foxtail (setaria); wheat also sown; conditions: laboratory and field experiments
Description: 1. Under laboratory and field conditions, the following bioassay column technique was used to evaluate the leaching of the herbicide using sensitive plants to the given herbicide. Briefly, the experiments have used 100×100×200 mm tin columns filled with soil. The column surface is sprayed with either the commercial formulation of the herbicide or with the organoclay formulated herbicide. The herbicide is added at the same amounts as in the field applications, i.e., 200 g of the active ingredient per 1000 m^2. Then the columns are irrigated with 50 m^3 /[…]. The water is added throughout 5 hours. The columns are left for 24 hr and then sliced along their lengths into two parts (right and left). Two plants, setaria and wheat were sown in each part in two rows and irrigated with water. The height and the weight of the plants 7 days after emergence are used as an indicator of the presence of herbicide at different depths in the soil column.
Alachlor was applied at 2.0 kg/ha followed by irrigation of 500 m^3 /ha. bars indicate standard errors.
Green foxtail growth was used to estimate the presence of matolachlor. Metolachlor formulations were commercial formulation (comm.); metolachlor on clay alone (Mont); metolachlor on clay pre-absorbed with BTMA 0.5 mole/kg clay. The clay based formulations contained 13% metolachlor. […] Bars indicate standard errors.
Green foxtail growth was used to estimate the presence of matolachlor. Metolachlor formulations were commercial formulation (comm.); metolachlor on clay pre-absorbed with PTMA 0.5 mole/kg clay. The clay based formulations contained 13% metolachlor. […] Bars indicate standard errors.

Row | Compound | adsorption on montmorillonite pre adsorbed by organic cations [1] | adsorption on montmorillonite preadsorbed by PTMA ([1]; PTMA 0.5 mmol/g clay) | inhibition of movement / leaching of the herbicide in the soil profile (green foxtail)
1 | CCOCN(C(=O)CCl)c1c(C)cccc1CC [acetochlor] | enhanced adsorption | Enhanced adsorption | The same trend was also found
2 | CCc1cccc(CC)c1N(COC)C(=O)CCl [alachlor] | enhanced adsorption |  | 
3 | CCCC[N+](CCCC)(CCCC)Cc1ccccc1.[Cl-] [BTBA, benzyl tributyl ammonium chloride] |  |  | significant inhibition of herbicide leaching has been achieved
4 | CNc1cnn(-c2cccc(C(F)(F)F)c2)c(=O)c1Cl [norflurazon] |  |  | The same trend was also found
5 | C[N+](C)(C)Cc1ccccc1.[Cl-] [BTMA, benzyltrimethyl ammonium chloride] |  |  | significant inhibition of herbicide leaching has been achieved
6 | CC[N+](CC)(CC)Cc1ccccc1.[Br-] [BTEA, benzyltriethyl ammonium bromide] |  |  | significant inhibition of herbicide leaching has been achieved

Source: US6261997A, “Slow release formulations of pesticides” (Yissum Research Development Company of the Hebrew …, priority 1996, dated 2001)
